Laboratory results reported in ChEMBL document CHEMBL1158002, “Aurantoside C, a new tetramic acid glycoside from the sponge Homophymia conferta” (J Nat Prod, 1999).
Values after ≈ are worked out from the molar mass of the structure shown.

Assay: Toxicity against brine shrimp
Format: organism-based
Conditions: artemia, in vivo

C/C(Cl)=C/C=C/C(Cl)=C/C=C/C=C/C=C/C=C/C(O)=C1\C(=O)[C@H](CC(N)=O)N([C@@H]2OC[C@@H](O)[C@H](O)[C@H]2O[C@@H]2O[C@H](CO)[C@@H](O[C@@H]3O[C@H](C)[C@@H](O)[C@@H]3O)[C@@H]2O)C1=O [AURANTOSIDE C]
LC50: 50 µg/mL (≈ 60.3 µM)
